Measured values published in patent publication US11382946B2, “Multi-functional peptides and use thereof” (NOVACELL TECHNOLOGY INC., priority 2019, dated 2022).
Non-standard residues stand in square brackets, D forms with d. Residues, ends and D or L forms follow the SMILES beside them. 2Nal = N[C@@H](Cc1ccc2ccccc2c1)C(=O)O; Nle = CCCC[C@H](N)C(=O)O

How the values were obtained:
S. aureus = assay type: cell-based, Staphylococcus aureus; details: 18 h
Experimental: (§1) The present inventors evaluated […] in order to select peptides showing excellent performance among various peptides synthesized in the Example 1. Particularly, in order to measure the antimicrobial activity of the peptide, after preparing Gram-positive bacteria Staphylococcus aureus (S. aureus) and Gram-negative bacteria Pseudomonas aeruginosa (P. aeruginosa), the bacteria were plated on agar plate medium by fourth streaking and cultured overnight in a 36° C. incubator. The next day, the strain colonies produced on the agar plate medium were inoculated into 3 ml nutrient medium and cultured overnight in a stirring incubator at 36° C. and 220 rpm. The next day, the bacteria were diluted to measure absorbance at 600 nm, adjusted to OD600=0.5, and diluted in a 1:100 ratio in nutrient medium. Then, the peptides prepared in the above Examples were serially diluted in concentrations of 0, 1.25, 2.5, 5, 10, and 20 μM in a nutrient medium to prepare 1 ml each, and then inoculated with 1 ml of the diluted bacteria. Subsequently, the mixture was stirred under conditions of 36° C. and 220 rpm, and incubated for 18 hours, and absorbance at 600 nm was measured.
(§2) As a result, 20 peptides showing high antibacterial activity against P. aeruginosa and S. aureus) were selected (FIGS. 2 and 3).

FPR2 = molecular target: T1, FPR2 (Homo sapiens, UniProt P25090); assay: FPR2 activation by intracellular calcium ion increase (Fura-2/AM) in FPR2-RBL cells; assay type: cell-based; details: RBL cells overexpressing FPR2
T1 construct: expressed in transfected cells; host or cells: RBL cells overexpressing FPR2 (FPR2-RBL)
T1 sequence (P25090 1-351): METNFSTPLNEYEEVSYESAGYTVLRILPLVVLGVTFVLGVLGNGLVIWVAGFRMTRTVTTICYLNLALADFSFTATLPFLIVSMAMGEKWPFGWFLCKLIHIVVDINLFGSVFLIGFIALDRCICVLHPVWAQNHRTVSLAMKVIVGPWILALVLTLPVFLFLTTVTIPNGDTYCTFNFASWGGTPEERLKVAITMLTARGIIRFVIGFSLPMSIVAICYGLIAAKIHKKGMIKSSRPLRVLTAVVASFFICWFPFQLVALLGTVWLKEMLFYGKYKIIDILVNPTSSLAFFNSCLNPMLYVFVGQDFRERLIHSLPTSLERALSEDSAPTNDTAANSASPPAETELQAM
Experimental: The present inventors observed a change in calcium ion permeability of the candidate peptides according to an embodiment of the present invention in order to determine whether they can activate the immunomodulatory function in a body or not. Particularly, intracellular concentration of calcium ions was measured to confirm that the peptide activates FPR2. RBL cells that do neither express FPR1 nor FPR2, RBL cells overexpressed FPR1 (FPR1-RBL) and RBL cells that overexpressed FPR2 (FPR2-RBL) were used and Fura-2/AM which is a fluorophore having high binding affinity to calcium in order to measure intracellular calcium ion level sensitively. For this purpose, cells were cultured in RPMI medium supplemented with 10% fetal bovine serum and harvested by centrifugation in log phase (mid-log phase, 1-3×10^7 cells/ml), and then washed several times with RPMI medium not supplemented with fetal bovine serum, and then the cells were resuspended in RPMI medium to 1×10^7 cells/ml. Subsequently, a final 3 μM concentration of Fura-2/AM was added and the cells were incubated for 45 minutes in a 37° C., 5% CO2 incubator. After the appropriated time, the cells are harvested, washed again with RPMI medium, and then suspended in the appropriate amount of RPMI medium supplemented with 250 μM of sulfinpyrazone, in order to prevent loss of Fura-2 entering the cells. About 2×10^6 cells were taken each time, harvested by rapid centrifugation, and resuspended in 1 ml of a Locke solution without addition of calcium ions and EGTA added, and the ratio of absorbance at two wavelengths of 340 nm and 380 nm on a spectrophotometer were monitored by treating the peptides according to an embodiment of the present invention at different concentrations (1 μM, 0.1 μM, and 0.01 μM) at intervals of about 1 minute, and then the difference in absorbance at two wavelengths was investigated. It was converted to the concentration of free calcium ions into cells according to the method of Grynkiewicz.

P. aeruginosa = assay type: cell-based, Pseudomonas aeruginosa; details: 18 h
Experimental: as §1, §2

SMILES	Antimicrobial activity (IC50, μg/ml) S. aureus (S. aureus) [µg/mL]	EC50 (FPR2) [nM]	Antimicrobial activity (IC50, μg/ml) P. aeruginosa (P. aeruginosa) [µg/mL]
CCCC[C@H](NC(=O)[C@H](CCCNC(=N)N)NC(=O)[C@H](Cc1c[nH]c2ccccc12)NC(=O)[C@H](Cc1c[nH]c2ccccc12)NC(=O)[C@H](CCCNC(=N)N)NC(=O)[C@H](Cc1ccc2ccccc2c1)NC(C)=O)C(=O)N[C@@H](Cc1c[nH]c2ccccc12)C(=O)N[C@@H](Cc1c[nH]c2ccccc12)C(=O)N[C@@H](CCCNC(=N)N)C(=O)N[C@@H](Cc1c[nH]c2ccccc12)C(=O)N[C@H](CCSC)C(N)=O [Peptide V23_Ac, Ac-ZRWWR-Nle-WWRWm-NH2] (Ac-[2Nal]RWWR[Nle]WWRW[dM]-NH2)	13.3	61.3	>50
CSCC[C@@H](NC(=O)[C@H](Cc1c[nH]c2ccccc12)NC(=O)[C@H](CCCNC(=N)N)NC(=O)[C@H](Cc1c[nH]c2ccccc12)NC(=O)[C@H](Cc1c[nH]c2ccccc12)NC(=O)[C@H](CCCNC(=N)N)NC(=O)[C@H](CCCNC(=N)N)NC(C)=O)C(N)=O [Peptide V24_Ac, Ac-RRWWRWm-NH2] (Ac-RRWWRW[dM]-NH2)	24.0	58.6	47.8
